Measurements: patent publication US20220323372A1, “COMPOSITION FOR IMPROVING LIVER FUNCTION” (NITTO FUJI FLOUR MILLING CO., LTD., priority 2019, published 2022)

Columns and labels:
[1] = tested on: Non-alcoholic steatohepatitis model mice (C57BL/6NASH mice); assay: AST value in plasma (Test Example 3); assay type: in vivo; conditions: group R: feed with 0.4 mass % of resveratrol; week 0 to week 4; vs control group
From the text: (§1) Non-alcoholic steatohepatitis model mice (Japan Charles River Co., Ltd., C57BL/6NASH mice, male) were purchased at the age of six weeks, acclimated for two days, and reared six per cage. The mice were reared in a constant temperature/constant humidity room maintained on a 12-hour light-dark cycle (light: 8 a.m. to 8 p.m.). After the acclimation phase, the feeds shown below were fed ad libitum in accordance with the test group. • Control group (group C): control feed not blended with test substance • Resveratrol group (group R): feed blended with 0.4 mass % of resveratrol (Tokyo Chemical Industry Co., Ltd.) • ARs high dose group (group AH): feed blended with 0.9 mass % of ARs • ARs low dose group (group AL): feed blended with 0.3 mass % of ARs The body weight was measured once a day during the test phase. Blood samples were also drawn once a week. Blood was drawn from the caudal vein of the mice, and plasma was obtained. The plasma was stored at −80° C. until being used in measurement. Also, after the body weight was measured on the final day of the test, blood was drawn under anesthesia by diethyl ether. The liver was removed immediately after sacrifice, weighed, and frozen by dry ice. […] The aspartate aminotransferase (AST) value and alanine aminotransferase (ALT) value in the plasma, which are general indicators of liver function, were measured. […]

[2] = tested on: intracellular mitochondria number of liver tissue; assay: Intracellular mitochondria number of liver tissue, weight ratio of mitochondrial DNA to genomic DNA (Test Example 8); assay type: in vivo, mice; conditions: group R: feed with 0.4 mass % of resveratrol; vs control group
Experimental: In this test example, the intracellular mitochondria number of the liver tissue was examined. Specifically, the intracellular mitochondria number of the liver tissue was evaluated by comparing the weight ratio of mitochondrial DNA to genomic DNA, measured by quantitative PCR as follows. DNA was extracted from liver tissue using a “NucleoSpin (registered trademark) Tissue kit (manufactured by Takara Bio Inc.)” according to the company's instructions. Each DNA copy number was quantified using a “Mouse Feeder Cell Quantification Kit (manufactured by Takara Bio Inc.)” according to the company's instructions. Primers having the following sequences were used. The PCR reaction was carried out under the following conditions. (95° C.,30 seconds→95° C.,5 seconds→60° C.,30 seconds)×40 cycles→95° C.,60 seconds For the weight ratio of measured mitochondrial DNA to genomic DNA, the relative values of each group were compared, taking the control group (group C) as 100%.

[3] = tested on: Non-alcoholic steatohepatitis model mice (C57BL/6NASH mice); assay: Weight gain in hepatitis model mice (Test Example 2); assay type: in vivo; conditions: Resveratrol group (group R): feed blended with 0.4 mass % of resveratrol, ad libitum
[4] = tested on: Non-alcoholic steatohepatitis model mice (C57BL/6NASH mice); assay: Triglyceride level in liver tissue (Test Example 4); assay type: in vivo; conditions: group R: feed with 0.4 mass % of resveratrol; control group 130 mg/g
From the text: Non-alcoholic steatohepatitis model mice (Japan Charles River Co., Ltd., C57BL/6NASH mice, male) were purchased at the age of six weeks, acclimated for two days, and reared six per cage. The mice were reared in a constant temperature/constant humidity room maintained on a 12-hour light-dark cycle (light: 8 a.m. to 8 p.m.). After the acclimation phase, the feeds shown below were fed ad libitum in accordance with the test group. • Control group (group C): control feed not blended with test substance • Resveratrol group (group R): feed blended with 0.4 mass % of resveratrol (Tokyo Chemical Industry Co., Ltd.) • ARs high dose group (group AH): feed blended with 0.9 mass % of ARs • ARs low dose group (group AL): feed blended with 0.3 mass % of ARs The body weight was measured once a day during the test phase. Blood samples were also drawn once a week. Blood was drawn from the caudal vein of the mice, and plasma was obtained. The plasma was stored at −80° C. until being used in measurement. Also, after the body weight was measured on the final day of the test, blood was drawn under anesthesia by diethyl ether. The liver was removed immediately after sacrifice, weighed, and frozen by dry ice. […] A quantity of 0.5 mL of normal saline was added to the recovered supernatant and mixed for several seconds. […] The resultant mixture served as a sample, and the triglyceride level was measured. […]

[5] = tested on: Non-alcoholic steatohepatitis model mice (C57BL/6NASH mice); assay: ALT value in plasma (Test Example 3); assay type: in vivo; conditions: group R: feed with 0.4 mass % of resveratrol; week 0 to week 4; vs control group
From the text: as §1

[6] = tested on: Non-alcoholic steatohepatitis model mice (C57BL/6NASH mice); assay: Pathology evaluation of liver tissue by HE stain (Test Example 5); assay type: in vivo; conditions: group R: feed with 0.4 mass % of resveratrol; vs control group
From the text: Non-alcoholic steatohepatitis model mice (Japan Charles River Co., Ltd., C57BL/6NASH mice, male) were purchased at the age of six weeks, acclimated for two days, and reared six per cage. The mice were reared in a constant temperature/constant humidity room maintained on a 12-hour light-dark cycle (light: 8 a.m. to 8 p.m.). After the acclimation phase, the feeds shown below were fed ad libitum in accordance with the test group. • Control group (group C): control feed not blended with test substance • Resveratrol group (group R): feed blended with 0.4 mass % of resveratrol (Tokyo Chemical Industry Co., Ltd.) • ARs high dose group (group AH): feed blended with 0.9 mass % of ARs • ARs low dose group (group AL): feed blended with 0.3 mass % of ARs The body weight was measured once a day during the test phase. Blood samples were also drawn once a week. Blood was drawn from the caudal vein of the mice, and plasma was obtained. The plasma was stored at −80° C. until being used in measurement. Also, after the body weight was measured on the final day of the test, blood was drawn under anesthesia by diethyl ether. The liver was removed immediately after sacrifice, weighed, and frozen by dry ice. The liver was divided into halves, and each was placed in a 1.5 mL tube and frozen at −80° C. Frozen liver tissue was embedded in paraffin and sliced. […]

Oc1ccc(C=Cc2cc(O)cc(O)c2)cc1 [resveratrol]
changes in AST value in plasma [1]: the changes were almost the same as the control group | intracellular mitochondria number of liver tissue (weight ratio of mitochondrial DNA to genomic DNA) [2]: no changes in intracellular mitochondria number were seen | weight gain during the test phase [3]: weight gain suppression in the hepatitis model mice could not be improved | triglyceride level in liver tissue [4]: could not be corrected | changes in ALT value in plasma [5]: the changes were almost the same as the control group | blank spaces derived from fat droplets in HE stained liver tissue [6]: virtually no effect was seen
